Laboratory results taken from patent US8815882B2, “Pyrazole aminopyrimidine derivatives as LRRK2 modulators” (Genentech, Inc., priority 2010, dated 2014).
pKi: −log10 of the molar value.

Biological target: T1, LRRK2 (Homo sapiens, UniProt Q5S007, G2019S)
T1 construct: purchased Invitrogen PV4882 (lot 567054A)
Assay: In Vitro LRRK2 Assay (LabChip 3000, fluorescently-labeled peptide substrate, ATP)
Assay type: biochemical
Settings: read-out: LRRK2 Ki (KI), Table 8
Outline: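 Read-out was LabChip capillary electrophoresis, resolving phospho- from non-phospho-peptide by fluorescence intensity. The kinase reaction combined enzyme, ATP, test compound and labeled peptide (4 μM working dilution) for 2 h in darkness before stop solution. Values were reported as Ki, from a tight-binding model with Et, S and Km, or as IC50 or percent inhibition.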

T1 sequence (Q5S007 whole entry G2019S): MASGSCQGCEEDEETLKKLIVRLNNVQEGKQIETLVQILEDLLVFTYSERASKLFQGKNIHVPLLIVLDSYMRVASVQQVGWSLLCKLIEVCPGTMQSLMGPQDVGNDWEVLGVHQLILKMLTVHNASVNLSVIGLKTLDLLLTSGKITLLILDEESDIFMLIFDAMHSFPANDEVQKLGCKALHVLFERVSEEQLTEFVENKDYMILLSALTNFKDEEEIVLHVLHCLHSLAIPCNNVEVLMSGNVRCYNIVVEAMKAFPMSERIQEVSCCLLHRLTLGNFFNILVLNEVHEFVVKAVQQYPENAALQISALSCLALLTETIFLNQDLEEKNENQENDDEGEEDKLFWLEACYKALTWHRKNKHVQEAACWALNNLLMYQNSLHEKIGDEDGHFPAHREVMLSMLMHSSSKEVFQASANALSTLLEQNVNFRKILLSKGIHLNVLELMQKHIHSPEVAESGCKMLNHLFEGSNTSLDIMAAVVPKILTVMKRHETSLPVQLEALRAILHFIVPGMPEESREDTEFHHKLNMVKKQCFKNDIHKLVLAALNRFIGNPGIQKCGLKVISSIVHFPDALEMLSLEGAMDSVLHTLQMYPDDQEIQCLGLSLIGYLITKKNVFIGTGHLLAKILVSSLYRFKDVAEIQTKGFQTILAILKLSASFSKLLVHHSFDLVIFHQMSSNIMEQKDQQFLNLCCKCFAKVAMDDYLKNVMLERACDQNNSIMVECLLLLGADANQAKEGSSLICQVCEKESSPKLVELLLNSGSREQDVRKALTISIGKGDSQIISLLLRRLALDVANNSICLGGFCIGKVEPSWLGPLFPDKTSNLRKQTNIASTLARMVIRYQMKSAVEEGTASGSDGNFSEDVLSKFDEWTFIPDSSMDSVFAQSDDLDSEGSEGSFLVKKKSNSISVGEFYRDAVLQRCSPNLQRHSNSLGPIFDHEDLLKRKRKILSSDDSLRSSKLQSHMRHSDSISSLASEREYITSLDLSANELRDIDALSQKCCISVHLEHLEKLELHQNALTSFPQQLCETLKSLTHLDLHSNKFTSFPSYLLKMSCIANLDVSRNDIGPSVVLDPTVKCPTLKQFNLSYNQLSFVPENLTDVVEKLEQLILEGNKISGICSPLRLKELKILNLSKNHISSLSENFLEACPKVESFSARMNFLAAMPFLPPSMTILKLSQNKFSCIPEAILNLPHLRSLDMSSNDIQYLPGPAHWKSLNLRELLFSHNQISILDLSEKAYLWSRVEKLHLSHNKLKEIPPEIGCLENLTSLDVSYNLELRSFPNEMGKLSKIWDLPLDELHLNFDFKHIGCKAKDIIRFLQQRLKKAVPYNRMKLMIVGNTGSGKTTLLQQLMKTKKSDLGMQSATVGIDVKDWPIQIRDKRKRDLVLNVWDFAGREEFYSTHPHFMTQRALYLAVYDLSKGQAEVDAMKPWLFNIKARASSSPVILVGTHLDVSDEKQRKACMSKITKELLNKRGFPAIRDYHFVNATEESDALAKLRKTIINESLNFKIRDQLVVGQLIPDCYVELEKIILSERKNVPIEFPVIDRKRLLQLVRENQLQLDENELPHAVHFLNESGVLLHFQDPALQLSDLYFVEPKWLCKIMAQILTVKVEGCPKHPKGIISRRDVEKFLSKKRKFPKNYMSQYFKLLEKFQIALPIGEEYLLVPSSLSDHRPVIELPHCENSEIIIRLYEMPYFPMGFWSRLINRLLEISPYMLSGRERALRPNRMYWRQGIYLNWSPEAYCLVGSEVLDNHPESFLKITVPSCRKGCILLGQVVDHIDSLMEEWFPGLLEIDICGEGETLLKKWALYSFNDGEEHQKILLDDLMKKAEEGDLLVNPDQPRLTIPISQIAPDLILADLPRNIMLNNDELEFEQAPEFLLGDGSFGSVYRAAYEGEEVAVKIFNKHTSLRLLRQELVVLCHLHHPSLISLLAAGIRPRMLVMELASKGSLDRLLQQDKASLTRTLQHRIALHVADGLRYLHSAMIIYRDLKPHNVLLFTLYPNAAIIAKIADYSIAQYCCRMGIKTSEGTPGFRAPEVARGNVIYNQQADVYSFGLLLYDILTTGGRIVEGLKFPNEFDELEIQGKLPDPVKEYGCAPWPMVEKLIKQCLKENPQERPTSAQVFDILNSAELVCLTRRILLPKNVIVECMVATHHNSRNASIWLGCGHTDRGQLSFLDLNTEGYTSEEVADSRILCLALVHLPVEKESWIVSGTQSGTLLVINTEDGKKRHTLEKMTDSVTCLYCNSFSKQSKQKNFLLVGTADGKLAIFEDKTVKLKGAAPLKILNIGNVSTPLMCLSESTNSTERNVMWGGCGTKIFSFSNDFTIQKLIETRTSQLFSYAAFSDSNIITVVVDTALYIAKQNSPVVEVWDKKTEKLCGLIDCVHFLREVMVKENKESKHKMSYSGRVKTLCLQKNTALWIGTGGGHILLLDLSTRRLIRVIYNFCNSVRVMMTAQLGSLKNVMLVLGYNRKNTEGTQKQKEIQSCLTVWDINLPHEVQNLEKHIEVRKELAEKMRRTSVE

| SMILES | pKi |
| --- | --- |
| CNc1nc(Nc2cn(C3CCCC3OC)nc2C)ncc1C(F)(F)F (centres unmarked) [Example 188, N2-(1-(2-methoxycyclo-pentyl)-3-methyl-1H-pyrazol-4-yl)-N4-methyl-5-(trifluoromethyl) pyrimidine-2,4-diamine] | 7.92 |
| CNc1nc(Nc2cn(C[C@H](C)OC)nc2C)ncc1C(F)(F)F [Example 189, (S)-N2-(1-(2-methoxypropyl)-3-methyl-1H-pyrazol-4-yl)-N4-methyl-5-(trifluoromethyl) pyrimidine-2,4-diamine] | 7.93 |
| CNc1nc(Nc2cn(C(C)(C)COC)nc2C)ncc1C(F)(F)F [Example 190, N2-(1-(1-methoxy-2-methylpropan-2-yl)-3-methyl-1H-pyrazol-4-yl)-N4-methyl-5-(trifluoromethyl) pyrimidine-2,4-diamine] | 8.16 |
| CNc1nc(Nc2cn(C3CC(C)OC(C)C3)nc2C)ncc1C(F)(F)F (centres unmarked) [Example 191, N2-(1-(2,6-dimethyltetrahydro-2H-pyran-4-yl)-3-methyl-1H-pyrazol-4-yl)-N4-methyl-5-(trifluoromethyl) pyrimidine-2,4-diamine] | 7.07 |
| CNc1nc(Nc2cnn(C[C@@H](C)OC)c2C)ncc1C(F)(F)F [Example 192, (R)-N2-(1-(2-methoxypropyl)-5-methyl-1H-pyrazol-4-yl)-N4-methyl-5-(trifluoromethyl) pyrimidine-2,4-diamine] | 8.20 |
| CNc1nc(Nc2cn(C3CCC(OC)C3)nc2C)ncc1C(F)(F)F (centres unmarked) [Example 193, N2-(1-(3-methoxycyclo-pentyl)-3-methyl-1H-pyrazol-4-yl)-N4-methyl-5-(trifluoromethyl) pyrimidine-2,4-diamine] | 7.72 |
| CNc1nc(Nc2cnn(C)c2NC)ncc1C(F)(F)F [Example 194, N4-methyl-N2-(1-methyl-5-(methylamino)-1H-pyrazol-4-yl)-5-(trifluoromethyl) pyrimidine-2,4-diamine] | 7.28 |
| CNc1nc(Nc2cnn(S(C)(=O)=O)c2C)ncc1C(F)(F)F [Example 195, N4-methyl-N2-(5-methyl-1-(methylsulfonyl)-1H-pyrazol-4-yl)-5-(trifluoromethyl) pyrimidine-2,4-diamine] | 8.00 |
| CNc1nc(Nc2cnn(C3CCS(=O)(=O)CC3)c2C)ncc1C(F)(F)F [Example 196, N4-methyl-N2-(5-methyl-1-(tetrahydro-2H-1,1-dioxo-thiopyran-4-yl)-1H-pyrazol-4-yl)-5-(trifluoromethyl) pyrimidine-2,4-diamine] | 7.33 |
| CNc1nc(Nc2cnn(CC(C)(C)O)c2C(F)(F)F)ncc1C(F)(F)F [Example 197, 2-methyl-1-(4-(4-(methylamino)-5-(trifluoromethyl)pyrimidin-2-ylamino)-5-(trifluoromethyl)-1H-pyrazol-1-yl)propan-2-ol] | 7.59 |
| CNc1nc(Nc2cn(CC(C)(C)O)nc2C(F)(F)F)ncc1C(F)(F)F [Example 198, 2-methyl-1-(4-(4-(methylamino)-5-(trifluoromethyl)pyrimidin-2-ylamino)-3-(trifluoromethyl)-1H-pyrazol-1-yl)propan-2-ol] | 7.57 |
| CNc1nc(Nc2cn(C3CCN(C4COC4)CC3F)nc2C)ncc1C(F)(F)F (centres unmarked) [Example 199, N2-(1-(3-fluoro-1-(oxetan-3-yl)piperidin-4-yl)-3-methyl-1H-pyrazol-4-yl)-N4-methyl-5-(trifluoromethyl) pyrimidine-2,4-diamine] | 8.66 |
| CNc1nc(Nc2cn([C@H](C)COC)nc2C)ncc1C(F)(F)F [Example 200, (R)-N2-(1-(1-methoxypropan-2-yl)-3-methyl-1H-pyrazol-4-yl)-N4-methyl-5-(trifluoromethyl) pyrimidine-2,4-diamine] | 7.89 |
| CCNc1nc(Nc2cn(CC(C)(C)O)nc2C(C)(C)C)ncc1C(F)(F)F [Example 201, 1-(3-tert-butyl-4-(4-(ethylamino)-5-(trifluoromethyl)pyrimidin-2-ylamino)-1H-pyrazol-1-yl)-2-methylpropan-2-ol] | 6.38 |
| CNc1nc(Nc2cn(C3CN(CC(F)(F)F)C3)nc2C)ncc1C(F)(F)F [Example 202, N4-methyl-N2-(3-methyl-1-(1-(2,2,2-trifluoroethyl)azetidin-3-yl)-1H-pyrazol-4-yl)-5-(trifluoromethyl) pyrimidine-2,4-diamine] | 7.47 |
| CNc1nc(Nc2cnn(C(C)(C)COC)c2C)ncc1C(F)(F)F [Example 203, N2-(1-(1-methoxy-2-methylpropan-2-yl)-5-methyl-1H-pyrazol-4-yl)-N4-methyl-5-(trifluoromethyl) pyrimidine-2,4-diamine] | 7.38 |
| CNc1nc(Nc2cn([C@@H]3CCN(C4COC4)C3)nc2C)ncc1C(F)(F)F [Example 204, (R)-N4-methyl-N2-(3-methyl-1-(1-(oxetan-3-yl)pyrrolidin-3-yl)-1H-pyrazol-4-yl)-5-(trifluoromethyl) pyrimidine-2,4-diamine] | 7.54 |
| CNc1nc(Nc2cnn([C@H](C)COC)c2C)ncc1C(F)(F)F [Example 205, (R)-N2-(1-(1-methoxypropan-2-yl)-5-methyl-1H-pyrazol-4-yl)-N4-methyl-5-(trifluoromethyl) pyrimidine-2,4-diamine] | 7.72 |
| CNc1nc(Nc2[nH]ncc2C)ncc1C(F)(F)F [Example 206, N4-methyl-N2-(4-methyl-1H-pyrazol-5-yl)-5-(trifluoromethyl) pyrimidine-2,4-diamine] | 6.63 |
| CCNc1nc(Nc2cnn(C3CCN(C)CC3)c2C)ncc1C(F)(F)F [Example 207, N4-ethyl-N2-(5-methyl-1-(1-methylpiperidin-4-yl)-1H-pyrazol-4-yl)-5-(trifluoromethyl) pyrimidine-2,4-diamine] | 8.59 |
| CCNc1nc(Nc2cn(C3CCN(C)CC3)nc2C)ncc1C(F)(F)F [Example 208, N4-ethyl-N2-(3-methyl-1-(1-methylpiperidin-4-yl)-1H-pyrazol-4-yl)-5-(trifluoromethyl) pyrimidine-2,4-diamine] | 7.99 |
| CNc1nc(Nc2cn(C3CCN(C)CC3)nc2C)ncc1C(F)(F)F [Example 209, N4-methyl-N2-(3-methyl-1-(1-methylpiperidin-4-yl)-1H-pyrazol-4-yl)-5-(trifluoromethyl) pyrimidine-2,4-diamine] | 7.39 |
| CNc1nc(Nc2cnn(C3CCN(C)CC3)c2C)ncc1C(F)(F)F [Example 210, N4-methyl-N2-(5-methyl-1-(1-methylpiperidin-4-yl)-1H-pyrazol-4-yl)-5-(trifluoromethyl) pyrimidine-2,4-diamine] | 8.15 |
| CNc1nc(Nc2cnn([C@@H]3CCN(C4COC4)C3)c2C)ncc1C(F)(F)F [Example 211, (R)-N4-methyl-N2-(5-methyl-1-(1-(oxetan-3-yl)pyrrolidin-3-yl)-1H-pyrazol-4-yl)-5-(trifluoromethyl) pyrimidine-2,4-diamine] | 8.48 |
| CNc1nc(Nc2cnn(Cc3ccccn3)c2C)ncc1C(F)(F)F [Example 212, N4-methyl-N2-(5-methyl-1-(pyridin-2-ylmethyl)-1H-pyrazol-4-yl)-5-(trifluoromethyl) pyrimidine-2,4-diamine] | 8.54 |
| CNc1nc(Nc2cn(Cc3ccccn3)nc2C)ncc1C(F)(F)F [Example 213, N4-methyl-N2-(3-methyl-1-(pyridin-2-ylmethyl)-1H-pyrazol-4-yl)-5-(trifluoromethyl) pyrimidine-2,4-diamine] | 8.54 |
